Patent publication US8461329B2, “Isoquinoline derivative” (Taisho Pharmaceutical Co., Ltd., priority 2008, dated 2013)
Read-outs that look alike come from different tables or passages of the source.

Biological target: T1, CRTH2 (KB8 cells) (Homo sapiens, UniProt Q9Y5Y4)
T1 construct: host or cells: KB8 cells (human CRTH2 expression cell)
T1 sequence (Q9Y5Y4 1-395): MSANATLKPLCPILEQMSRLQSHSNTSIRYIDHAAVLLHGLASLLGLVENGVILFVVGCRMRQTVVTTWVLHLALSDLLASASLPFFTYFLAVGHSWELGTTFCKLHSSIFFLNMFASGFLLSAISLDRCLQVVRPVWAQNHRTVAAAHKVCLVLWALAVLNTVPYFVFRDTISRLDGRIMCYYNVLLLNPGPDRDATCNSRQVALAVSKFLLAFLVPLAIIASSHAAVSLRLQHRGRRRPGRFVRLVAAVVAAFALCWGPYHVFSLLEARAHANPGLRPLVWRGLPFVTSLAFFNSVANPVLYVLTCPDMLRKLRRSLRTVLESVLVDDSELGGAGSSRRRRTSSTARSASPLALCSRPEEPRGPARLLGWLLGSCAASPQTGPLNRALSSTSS
Assay: CRTH2 antagonist test (PGD2-induced intracellular calcium ion concentration increase in KB8 cells)
Format: cell-based
Outline: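 Fluo-4-AM-loaded KB8 cells in HBSS with 10 mM HEPES and 1 mM CaCl2 received compound plus PGD2 (final 100 nM); peak fluorescence followed over time. Inhibition was computed against no-compound and unlabelled-PGD2 controls, and IC50 obtained from a dose-response curve.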

[1] = PGD2 final concentration 100 nM, Fluo-4-AM fluorescence, read-out: antagonist activity (IC50 value, inhibition of calcium ion concentration increase)
[2] = PGD2 100 nM, Fluo-4 calcium fluorescence, read-out: CRTH2 antagonist activity IC50 value

IC50 [1]	IC50 [2]	SMILES
< 50 nM		O=C(O)Cc1cnc(Cc2ccc(C(=O)NCCc3cccc(Cl)c3Cl)cc2)c2ccccc12 [Example 226]
≥ 1000 nM		O=C(O)Cc1cnc(Cc2ccc(C(=O)NCCc3cn4ccccc4n3)cc2)c2ccccc12 [Example 227]
< 50 nM		O=C(O)Cc1cnc(Cc2ccc(C(=O)NCCc3cc(F)ccc3Cl)cc2)c2ccccc12 [Example 228]
< 50 nM		O=C(O)Cc1cnc(Cc2ccc(C(=O)NCCc3ccc(F)c(F)c3)cc2)c2ccccc12 [Example 229]
< 50 nM		O=C(O)Cc1cnc(Cc2ccc(C(=O)NCCc3csc4ccccc34)cc2)c2ccccc12 [Example 230]
< 50 nM		Cc1cc(C)cc(CCNC(=O)c2ccc(Cc3ncc(CC(=O)O)c4ccccc34)cc2)c1 [Example 231]
< 50 nM		COc1ccc(CCNC(=O)c2ccc(Cc3ncc(CC(=O)O)c4ccccc34)cc2)cc1F [Example 232]
< 50 nM		O=C(O)Cc1cnc(Cc2ccc(C(=O)NCCc3ccc(F)cc3Cl)cc2)c2ccccc12 [Example 233]
< 50 nM	5.9 nM	O=C(O)Cc1cnc(Cc2ccc(C(=O)NCCc3cc4cc(Cl)ccc4[nH]3)cc2)c2ccccc12 [Example 234]
< 50 nM		O=C(O)Cc1cnc(Cc2ccc(C(=O)NCCc3cc4cc(F)ccc4[nH]3)cc2)c2ccccc12 [Example 235]
< 50 nM		COc1ccc2[nH]c(CCNC(=O)c3ccc(Cc4ncc(CC(=O)O)c5ccccc45)cc3)cc2c1 [Example 236]
< 50 nM		O=C(O)Cc1cnc(Cc2ccc(C(=O)NCCc3ccc(C4CCCCC4)cc3)cc2)c2ccccc12 [Example 237]
< 50 nM		CCCCCCc1ccc(CCNC(=O)c2ccc(Cc3ncc(CC(=O)O)c4ccccc34)cc2)cc1 [Example 238]
50 to 500 nM		O=C(O)Cc1cnc(Cc2ccc(C(=O)NCCC3CC3)cc2)c2ccccc12 [Example 239]
< 50 nM	6.6 nM	O=C(O)Cc1cnc(Cc2ccc(C(=O)NCCC34CC5CC(CC(C5)C3)C4)cc2)c2ccccc12 [Example 240]
< 50 nM		CCCOc1ccc(CCNC(=O)c2ccc(Cc3ncc(CC(=O)O)c4ccccc34)cc2)cc1 [Example 241]
< 50 nM		Cc1ccc2sc(CCNC(=O)c3ccc(Cc4ncc(CC(=O)O)c5ccccc45)cc3)cc2c1 [Example 242]
< 50 nM		O=C(O)Cc1cnc(Cc2ccc(C(=O)NCCc3ccccc3Oc3ccccc3)cc2)c2ccccc12 [Example 243]

IC50 [1]	IC50 [2]	SMILES
< 50 nM		O=C(O)Cc1cnc(Cc2ccc(C(=O)NCCc3cccc(Cl)c3F)cc2)c2ccccc12 [Example 244]
< 50 nM		Cc1cc(CCNC(=O)c2ccc(Cc3ncc(CC(=O)O)c4ccccc34)cc2)ccc1Cl [Example 245]
50 to 500 nM		O=C(O)Cc1cnc(Cc2ccc(C(=O)NCC3(c4ccc(Cl)cc4)CC3)cc2)c2ccccc12 [Example 246]
50 to 500 nM		O=C(O)Cc1cnc(Cc2ccc(C(=O)NCCNC(=O)c3ccc(Cl)cc3)cc2)c2ccccc12 [Example 247]
50 to 500 nM		O=C(O)Cc1cnc(Cc2ccc(C(=O)NCCc3nc4ccccc4[nH]3)cc2)c2ccccc12 [Example 248]
< 50 nM		O=C(O)Cc1cnc(Cc2ccc(C(=O)NCCc3cc4ccccc4o3)cc2)c2ccccc12 [Example 249]
< 50 nM		O=C(O)Cc1cnc(Cc2ccc(C(=O)NCCc3nc4ccccc4s3)cc2)c2ccccc12 [Example 250]
50 to 500 nM		CC(C)(CNC(=O)c1ccc(Cc2ncc(CC(=O)O)c3ccccc23)cc1)c1ccc(Cl)cc1 [Example 251]
≥ 1000 nM		O=C(O)Cc1cnc(Cc2ccccc2OCc2ccc(Cl)cc2)c2ccccc12 [Example 252, (1-{2-[(4-chlorobenzyl)oxy]benzyl}isoquinolin-4-yl)acetic acid]
< 50 nM		O=C(O)Cc1cnc(Cc2ccc(C(=O)NCCc3ccc(Cl)cc3)cc2)c2ccc(F)cc12 [Example 253, [1-(4-{[2-(4-chlorophenyl)ethyl]carbamoyl}benzyl)-6-fluoroisoquinoline-4-yl]acetic acid]
500 to 1000 nM		CC(C(=O)O)c1cnc(Cc2ccc(C(=O)NCCc3ccc(Cl)cc3)cc2)c2ccccc12 (centres unmarked) [Example 254, 2-[1-(4-{[2-(4-chlorophenyl)ethyl]carbamoyl}benzyl)isoquinolin-4-yl]propanoic acid]
≥ 1000 nM		CC(C)(C(=O)O)c1cnc(C(=O)c2ccc(C(=O)NCCc3ccc(Cl)cc3)cc2)c2ccccc12 [Example 255, 2-{1-[(4-{[2-(4-chlorophenyl)ethyl]carbamoyl}phenyl)carbonyl]isoquinolin-4-yl}-2-methylpropanoic acid]
≥ 1000 nM		NC(=O)Cc1cnc(Cc2ccc(C(=O)NCCc3ccc(Cl)cc3)cc2)c2ccccc12 [Example 256, 4-{[4-(2-amino-2-oxoethyl)isoquinolin-1-yl]methyl}-N-[2-(4-chlorophenyl)ethyl]benzamide]
≥ 1000 nM		O=C(NCCc1ccc(Cl)cc1)c1ccc(Cc2ncc(Cc3nnn[nH]3)c3ccccc23)cc1 [Example 257, N-[2-(4-chlorophenyl)ethyl]-4-{[4-(1H-tetrazol-5-ylmethyl)isoquinolin-1-yl]methyl}benzamide]
≥ 1000 nM		O=C(Cc1cnc(Cc2ccc(C(=O)NCCc3ccc(Cl)cc3)cc2)c2ccccc12)NO [Example 258, N-[2-(4-chlorophenyl)ethyl]-4-({4-[2-(hydroxyamino)-2-oxoethyl]isoquinolin-1-yl}methyl)benzamide]
50 to 500 nM		COc1cc2c(CC(=O)O)cnc(C(=O)c3ccc(C(=O)NCCc4ccc(Cl)cc4)cc3)c2cc1OC [Example 259, {1-[(4-{[2-(4-chlorophenyl)ethyl]carbamoyl}phenyl)carbonyl]-6,7-dimethoxyisoquinolin-4-yl}acetic acid]
50 to 500 nM		COc1ccc2c(C(=O)c3ccc(C(=O)NCCc4ccc(Cl)cc4)cc3)ncc(CC(=O)O)c2c1 [Example 260, {1-[(4-{[2-(4-chlorophenyl)ethyl]carbamoyl}phenyl)carbonyl]-6-methoxyisoquinolin-4-yl}acetic acid]
≥ 1000 nM		O=C(O)Cc1cnc(Oc2ccc(C(=O)NCCc3ccc(Cl)cc3)cc2)c2ccccc12 [Example 261, [1-(4-{[2-(4-chlorophenyl)ethyl]carbamoyl}phenoxy)isoquinolin-4-yl]acetic acid]
